system: bicistronic HCV replicon (replicon RNA, GenBank Accession No. AJ242654); assay: HCV Replicon Assay; type: cell-based; settings: Hepatitis C virus, 72 h, read-out: Replicon IC50

Compared with CCc1cc2c(cc1F)c(C#N)c(-c1ccc(S(=O)(=O)N[C@@H](C)C(F)(F)F)cn1)n2C1=NC=CCN1 [compound 941, 6-[3-cyano-1-(1,6-dihydropyrimidin-2-yl)-6-ethyl-5-fluoro-1H-indol-2-yl]-N-[(2S)-1,1,1-trifluoropropan-2-yl]pyridine-3-sulfonamide], CCc1cc2c(cc1F)c(C#N)c(-c1ccc(S(=O)(=O)N[C@@H](C)C(F)(F)F)cn1)n2-c1ccccn1 [compound 778, 6-[3-cyano-6-ethyl-5-fluoro-1-(pyridin-2-yl)-1H-indol-2-yl]-N-[(2S)-1,1,1-trifluoropropan-2-yl]pyridine-3-sulfonamide] is lower in IC50: 500 to 2000 nM for the first, less than 500 nM for the second.

C[C@H](C1CC1)n1c(-c2ccc(NS(=O)(=O)C(C)(C)C)nc2)c(C(=O)O)c2cc(F)c(OC(F)F)cc21 [compound 1084, 2-{6-[(tert-butylsulfonyl)amino]pyridin-3-yl}-1-[(1R)-1-cyclopropylethyl]-6-(difluoromethoxy)-5-fluoro-1H-indole-3-carboxylic acid] and Cc1nc(NS(=O)(=O)C(C)(C)C)ccc1-c1c(C(=O)O)c2cc(F)c(OC(F)F)cc2n1[C@H](C)C1CC1 [compound 1094, 2-{6-[(tert-butylsulfonyl)amino]-2-methylpyridin-3-yl}-1-[(1R)-1-cyclopropylethyl]-6-(difluoromethoxy)-5-fluoro-1H-indole-3-carboxylic acid] cannot be ordered by IC50: less than 500 nM for the first, less than 500 nM for the second.

Cc1cc2c(cc1F)cc(-c1ccc(S(=O)(=O)N[C@@H](C)C(F)(F)F)cn1)n2C1CCCC1 [compound 760, 6-(1-cyclopentyl-5-fluoro-6-methyl-1H-indol-2-yl)-N-[(2S)-1,1,1-trifluoropropan-2-yl]pyridine-3-sulfonamide] and CNC(=O)c1c(-c2ccc(S(=O)(=O)N[C@@H](C)C(F)(F)F)cn2)n(C2CCCC2)c2cc(C)c(F)cc12 [compound 761, (S)-1-cyclopentyl-5-fluoro-N,6-dimethyl-2-(5-(N-(1,1,1-trifluoropropan-2-yl)sulfamoyl)pyridin-2-yl)-1H-indole-3-carboxamide] cannot be ordered by IC50: less than 500 nM for the first, less than 500 nM for the second.

First: COC(=O)c1csc(-n2c(-c3ccc(S(=O)(=O)N[C@@H](C)C(F)(F)F)cn3)c(C#N)c3cc(F)c(C)cc32)n1 [compound 986, methyl 2-[3-cyano-5-fluoro-6-methyl-2-(5-{[(2S)-1,1,1-trifluoropropan-2-yl]sulfamoyl}pyridin-2-yl)-1H-indol-1-yl]-1,3-thiazole-4-carboxylate]
Second: Cc1cc2c(cc1F)c(Cl)c(-c1ccc(S(=O)(=O)N[C@@H](C)C(F)(F)F)cn1)n2-c1nncs1 [compound 972, 6-[3-chloro-5-fluoro-6-methyl-1-(1,3,4-thiadiazol-2-yl)-1H-indol-2-yl]-N-[(2S)-1,1,1-trifluoropropan-2-yl]pyridine-3-sulfonamide]
The IC50 of the first is lower: less than 500 nM for the first, 2000 to 5000 nM for the second.

N#Cc1c(-c2ncc(S(=O)(=O)NC(CF)CF)cn2)n(C2CCC2)c2ccc(C(F)F)cc12 [compound 379, 2-[3-cyano-1-cyclobutyl-5-(difluoromethyl)-1H-indol-2-yl]-N-(1,3-difluoropropan-2-yl)pyrimidine-5-sulfonamide] and N#Cc1c(-c2ncc(S(=O)(=O)NC(CF)CF)cn2)n(C2CCC2)c2cc(C(F)F)ccc12 [compound 330, 2-[3-cyano-1-cyclobutyl-6-(difluoromethyl)-1H-indol-2-yl]-N-(1,3-difluoropropan-2-yl)pyrimidine-5-sulfonamide] cannot be ordered by IC50: less than 500 nM for the first, less than 500 nM for the second.

First: CC(C)(C)N(C(F)F)S(=O)(=O)c1ccc(-c2c(C#N)c3cc(F)c(OC(F)F)cc3n2C2CCC2)nc1 [compound 721, N-tert-butyl-6-[3-cyano-1-cyclobutyl-6-(difluoromethoxy)-5-fluoro-1H-indol-2-yl]-N-(difluoromethyl)pyridine-3-sulfonamide]
Second: C[C@@H](NS(=O)(=O)c1ccc(-c2c(C#N)c3cc(Cl)ccc3n2C2CCC2)nc1)C(F)(F)F [compound 316, 6-(5-chloro-3-cyano-1-cyclobutyl-1H-indol-2-yl)-N-[(2R)-1,1,1-trifluoropropan-2-yl]pyridine-3-sulfonamide]
The IC50 of the first is higher: 500 to 2000 nM for the first, less than 500 nM for the second.

Cc1cc2c(cc1F)c(C#N)c(-c1ccc(S(=O)(=O)NC3(C(F)(F)F)CC3)cn1)n2C1CCCCC1 [compound 856, 6-(3-cyano-1-cyclohexyl-5-fluoro-6-methyl-1H-indol-2-yl)-N-[1-(trifluoromethyl)cyclopropyl]pyridine-3-sulfonamide] and Cc1cc2c(cc1F)c(C#N)c(-c1ncc(S(=O)(=O)N[C@@H](C)C(F)(F)F)cn1)n2C1CCCCC1 [compound 679, 2-(3-cyano-1-cyclohexyl-5-fluoro-6-methyl-1H-indol-2-yl)-N-[(2S)-1,1,1-trifluoropropan-2-yl]pyrimidine-5-sulfonamide] cannot be ordered by IC50: less than 500 nM for the first, less than 500 nM for the second.

[2H]C(C)(C)NS(=O)(=O)c1ccc(-c2c(C#N)c3cc(F)c(C([2H])([2H])[2H])cc3n2CC2CC2)nc1 [compound 1119, 6-[3-cyano-1-(cyclopropylmethyl)-5-fluoro-6-(1,1,1-trideuterium)methyl-1H-indol-2-yl]-N-[(2-deuterium)propan-2-yl]pyridine-3-sulfonamide] and [2H][C@@](C)(NS(=O)(=O)c1ccc(-c2c(C#N)c3cc(F)c(CC)cc3n2-c2ncccn2)nc1)C(F)(F)F [compound 956, 6-[3-cyano-6-ethyl-5-fluoro-1-(pyrimidin-2-yl)-1H-indol-2-yl]-N-[(2S)-1,1,1-trifluoro(2-deuterium)propan-2-yl]pyridine-3-sulfonamide] cannot be ordered by IC50: less than 500 nM for the first, less than 500 nM for the second.

N#Cc1c(-c2ccc(S(=O)(=O)NC(CF)CF)cn2)n(C2CCCC2)c2ccc(C(F)F)cc12 [compound 535, 6-[3-cyano-1-cyclopentyl-5-(difluoromethyl)-1H-indol-2-yl]-N-(1,3-difluoropropan-2-yl)pyridine-3-sulfonamide] and N#Cc1c(-c2ccc(S(=O)(=O)NC(CF)CF)cn2)n(C2CCCC2)c2c(Cl)cccc12 [compound 88, 6-(7-chloro-3-cyano-1-cyclopentyl-1H-indol-2-yl)-N-(1,3-difluoropropan-2-yl)pyridine-3-sulfonamide] cannot be ordered by IC50: less than 500 nM for the first, less than 500 nM for the second.

First: [2H]C([2H])(C)c1cc2c(cc1F)c(C#N)c(-c1ccc(S(=O)(=O)N[C@@H](C)C(F)(F)F)cn1)n2-c1ncccn1 [compound 1078, 6-{3-cyano-6-[(1,1-dideuterium)ethyl]-5-fluoro-1-(pyrimidin-2-yl)-1H-indol-2-yl}-N-[(2S)-1,1,1-trifluoropropan-2-yl]pyridine-3-sulfonamide]
Second: C=CCc1cc2c(cc1F)c(Cl)c(-c1ccc(S(=O)(=O)N[C@@H](C)C(F)(F)F)cn1)n2-c1ncccn1 [compound 968, 6-[3-chloro-5-fluoro-6-(prop-2-en-1-yl)-1-(pyrimidin-2-yl)-1H-indol-2-yl]-N-[(2S)-1,1,1-trifluoropropan-2-yl]pyridine-3-sulfonamide]
The IC50 of the first is lower: less than 500 nM for the first, 500 to 2000 nM for the second. The first is the more potent here.

N#Cc1c(-c2ncc(S(=O)(=O)NC(CF)CF)cn2)n(C2CCC2)c2cc(CC(F)F)ccc12 [compound 591, 2-[3-cyano-1-cyclobutyl-6-(2,2-difluoroethyl)-1H-indol-2-yl]-N-(1,3-difluoropropan-2-yl)pyrimidine-5-sulfonamide] and CC(C)NS(=O)(=O)c1ccc(-c2c(C#N)c3ccc(C4CC4)cc3n2C2CCC2)cn1 [compound 27, 5-(3-cyano-1-cyclobutyl-6-cyclopropyl-1H-indol-2-yl)-N-(propan-2-yl)pyridine-2-sulfonamide] cannot be ordered by IC50: less than 500 nM for the first, less than 500 nM for the second.

Cc1cc2c(cc1F)c(C(N)=O)c(-c1ccc(S(=O)(=O)NC(C)(C)C)cn1)n2C1CCCC1 [compound 683, 2-[5-(tert-butylsulfamoyl)pyridin-2-yl]-1-cyclopentyl-5-fluoro-6-methyl-1H-indole-3-carboxamide] and COC(=O)c1c(-c2ccc(S(=O)(=O)NC(C)(C)C)cn2)n(C2CCC2)c2cc(C)c(F)cc12 [compound 770, methyl 2-[5-(tert-butylsulfamoyl)pyridin-2-yl]-1-cyclobutyl-5-fluoro-6-methyl-1H-indole-3-carboxylate] cannot be ordered by IC50: less than 500 nM for the first, less than 500 nM for the second.

COC(=O)c1c(-c2ccc(S(=O)(=O)N[C@@H](C)C(F)(F)F)cn2)n(C2CCCC2)c2cc(C)c(F)cc12 [compound 756, (S)-methyl 1-cyclopentyl-5-fluoro-6-methyl-2-(5-(N-(1,1,1-trifluoropropan-2-yl)sulfamoyl)pyridin-2-yl)-1H-indole-3-carboxylate] and Cc1cc2c(cc1F)cc(-c1ccc(S(=O)(=O)N[C@@H](C)C(F)(F)F)cn1)n2-c1cccs1 [compound 989, 6-[5-fluoro-6-methyl-1-(thiophen-2-yl)-1H-indol-2-yl]-N-[(2S)-1,1,1-trifluoropropan-2-yl]pyridine-3-sulfonamide] cannot be ordered by IC50: less than 500 nM for the first, less than 500 nM for the second.

First: CCc1cc2c(cc1F)c(C(N)=O)c(-c1ccc(S(=O)(=O)N[C@@H](C)C(F)(F)F)cn1)n2-c1cccc(C(F)(F)F)c1 [compound 1026, 6-ethyl-5-fluoro-1-[3-(trifluoromethyl)phenyl]-2-(5-{[(2S)-1,1,1-trifluoropropan-2-yl]sulfamoyl}pyridin-2-yl)-1H-indole-3-carboxamide]
Second: CCc1cc2c(cc1F)c(C(N)=O)c(-c1ccc(S(=O)(=O)N[C@@H](C)C(F)(F)F)cn1)n2-c1cncc(Cl)c1 [compound 1044, 1-(5-chloropyridin-3-yl)-6-ethyl-5-fluoro-2-(5-{[(2S)-1,1,1-trifluoropropan-2-yl]sulfamoyl}pyridin-2-yl)-1H-indole-3-carboxamide]
The IC50 of the first is higher: 500 to 2000 nM for the first, less than 500 nM for the second.

Compared with Cc1cc2c(cc1F)cc(-c1ccc(S(=O)(=O)N[C@@H](C)C(F)(F)F)cn1)n2-c1ccoc1 [compound 988, 6-[5-fluoro-1-(furan-3-yl)-6-methyl-1H-indol-2-yl]-N-[(2S)-1,1,1-trifluoropropan-2-yl]pyridine-3-sulfonamide], CCc1cc2c(cc1F)c(C(N)=O)c(-c1ccc(S(=O)(=O)N[C@@H](C)C(F)(F)F)cn1)n2-c1ncccc1Cl [compound 1042, 1-(3-chloropyridin-2-yl)-6-ethyl-5-fluoro-2-(5-{[(2S)-1,1,1-trifluoropropan-2-yl]sulfamoyl}pyridin-2-yl)-1H-indole-3-carboxamide] is higher in IC50: less than 500 nM for the first, 500 to 2000 nM for the second.

Source: patent publication US8735414B2 (priority 2009, dated 2014)
